PubChem BioAssay AID1949 (Southern Research Institute, 2009)
In brackets after ≈: the same amount, converted by molar mass. Inconclusive results are not listed. Activity calls are given as the source filed them. The rule behind the calls is not given here.

Tested on: M. tuberculosis H37Rv growth inhibition
Assay: Confirmatory growth inhibition assay against Mycobacterium tuberculosis H37Rv, potency (AID 1949);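 note: bacteria grown 7 days with compound before Alamar blue readout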

Row | SMILES | IC50
1 | O=c1oc(-c2ccccc2)cc(Cl)c1Cl | 2.04 µg/mL (≈ 8.46 µM)
2 | O=C(NC1CC1c1ccccc1)C12CC3CC(CC(C3)C1)C2 (stereo not given) | 14.6 µg/mL (≈ 49.5 µM)
3 | O=C(Cc1ccc(F)cc1)Nc1ccc(Cl)c(C(F)(F)F)c1 | 1.2 µg/mL (≈ 3.62 µM)
4 | c1ccc(COc2ccc(OCCn3ccnc3)cc2)cc1 | 10.4 µg/mL (≈ 35.2 µM)
5 | CC1(C)Oc2ccc3ccc(=O)oc3c2C(C=O)=C1Cl | 1.03 µg/mL (≈ 3.54 µM)
6 | COc1ccccc1C(=O)NNC(=S)NC(=O)C1CCCCC1 | 3.02 µg/mL (≈ 9 µM)
7 | O=C(Nc1ccc(Cl)c(C(F)(F)F)c1)C1CCN(C(=O)c2ccc(Br)cc2)CC1 | 7.21 µg/mL (≈ 14.7 µM)
8 | CCCC(=O)N1CCN(c2ccc(NC(=O)c3ccc(-c4ccc(Cl)cc4)o3)cc2Cl)CC1 | 1.4 µg/mL (≈ 2.88 µM)
9 | N#C/C(=C/c1ccc(N2CCCCC2)o1)c1cccc(F)c1 | 5.98 µg/mL (≈ 20.2 µM)
10 | CCOc1ccc(C(=O)NC23CC4CC(CC(C4)C2)C3)cc1[N+](=O)[O-] | > 50 µg/mL (inactive)
11 | CCOc1ccc(NCCC(=O)c2cccs2)cc1 | 0.86 µg/mL (≈ 3.12 µM)
12 | OC(COCCC12CC3CC(CC(C3)C1)C2)CN1CCc2ccccc2C1 (stereo not given) | 3.49 µg/mL (≈ 9.44 µM)
13 | CC1CCCN(CCC(=O)c2ccc(Br)cc2)C1 (stereo not given) | 2.8 µg/mL (≈ 9.03 µM)
14 | COC(=O)c1c(NC(=O)c2c(F)c(F)c(F)c(F)c2F)sc2c1CCCCC2 | 0.36 µg/mL (≈ 0.858 µM)
15 | COc1ccc(CCn2cnc3oc(-c4ccccc4)c(-c4ccccc4)c3c2=N)cc1OC | > 50 µg/mL (inactive)
16 | O=[N+]([O-])c1ccc(-c2[nH]c(-c3cccc(F)c3)nc2-c2ccccc2)cc1 | 2.62 µg/mL (≈ 7.29 µM)
17 | CCOC(=O)c1c(-c2ccc(C)o2)csc1NC(=S)NC(=O)N(C)C | 1.85 µg/mL (≈ 4.85 µM)
18 | Cc1ccc(SCC(=O)Nc2ccc(C)c(C)c2)cc1 | 3.4 µg/mL (≈ 11.9 µM)
19 | COc1cc(/C=C2\Oc3ccccc3C2O)cc(Cl)c1OC (stereo not given) | 3.04 µg/mL (≈ 9.54 µM)
20 | Cc1ccc(S(=O)(=O)NC(=O)Oc2cccc3cccnc23)cc1 | 3.32 µg/mL (≈ 9.7 µM)
21 | O=C1CC(c2ccc(Cl)cc2)CC2=C1C(c1ccc(C(F)(F)F)cc1)Nc1ccccc1N2 (stereo not given) | 2.14 µg/mL (≈ 4.56 µM)
22 | COc1cc(Br)cc2cc(C(=O)Nc3cccc(C(F)(F)F)c3)c(=O)oc12 | 0.11 µg/mL (≈ 0.249 µM)
23 | CCOC(=O)c1cc(=O)c(-c2ccccc2)n[nH]1 | 3.8 µg/mL (≈ 15.6 µM)

Row | SMILES | IC50
24 | CCc1ccc(NC(=S)Nc2ccc(Cl)c(Cl)c2)cc1 | 1.38 µg/mL (≈ 4.24 µM)
25 | CCN(CC)CCn1c(=N)n(CC(O)COc2ccc(Cl)cc2Cl)c2ccccc21 (stereo not given) | 1.38 µg/mL (≈ 3.06 µM)
26 | COc1ccc2c(c1)c(=O)oc1cc(OC(C)C(=O)c3ccccc3)ccc12 (stereo not given) | 2.84 µg/mL (≈ 7.59 µM)
27 | CC(C)Oc1ccc(Nc2ncnc3ccc(Br)cc23)cc1 | 2.5 µg/mL (≈ 6.98 µM)
28 | COc1ccc(C(=O)C(CN2CCOCC2)c2ccccc2)cc1 (stereo not given) | 2.09 µg/mL (≈ 6.42 µM)
29 | COc1ccc(NC(=O)CC23CC4CC(CC(C4)C2)C3)cc1[N+](=O)[O-] | 3.05 µg/mL (≈ 8.86 µM)
30 | c1ccc(CCNc2nc3ccccc3[nH]2)cc1 | 2.94 µg/mL (≈ 12.4 µM)
31 | CCOC(=O)c1c(NC(=S)N2CCN(C(=O)C3CCCO3)CC2)sc(C)c1-c1ccccc1 (stereo not given) | 6.67 µg/mL (≈ 13.7 µM)
32 | O=[N+]([O-])c1ccccc1S(=O)(=O)Nc1ccc(S(=O)(=O)Nc2nccs2)cc1 | 3.8 µg/mL (≈ 8.63 µM)
33 | O=C(CC12CC3CC(CC(C3)C1)C2)NC(=S)Nc1ccc2c(c1)OCCO2 | > 50 µg/mL (inactive)
34 | Cc1cc(Nc2ccc(N(C)C)cc2)c2cccc(C)c2n1 | 4.43 µg/mL (≈ 15.2 µM)
35 | CC(C)(C)c1ccc(OCCN2C(=O)C(=O)c3cc(Br)ccc32)cc1 | 1.49 µg/mL (≈ 3.7 µM)
36 | Cc1nc(SCc2csc(C)n2)c2c3c(sc2n1)CCCC3 | 1.61 µg/mL (≈ 4.63 µM)
37 | O=C1c2ccccc2C(=O)c2c1nc1n2CCCC1 | > 50 µg/mL (inactive)
38 | COc1cc(NC(=O)C(Cl)Cl)c(OC)cc1Cl | 2.68 µg/mL (≈ 8.98 µM)
39 | N#Cc1cc(-c2nc3ccccc3[nH]2)c(N)n2c1nc1ccccc12 | 11.5 µg/mL (≈ 35.5 µM)
40 | CC(C)C1C(c2ccccc2)NC(c2ccccc2)CC1(O)c1ccc(F)cc1 (stereo not given) | 10.1 µg/mL (≈ 25.9 µM)
41 | c1ccc2c(NCCc3c[nH]c4ccccc34)c3ccccc3nc2c1 | 1.51 µg/mL (≈ 4.48 µM)
42 | COC(=O)c1ccc(CSc2nnc(-c3ccncc3)o2)o1 | > 50 µg/mL (inactive)
43 | S=C(NCCCN1CCN(c2ccc(Cl)cc2)CC1)Nc1cccc(Cl)c1 | 3 µg/mL (≈ 7.09 µM)
44 | CC(=O)c1ccc(NCCC(=O)c2ccco2)cc1 | 2.8 µg/mL (≈ 10.9 µM)
45 | O=C(C1CCCN1S(=O)(=O)c1ccc(Cl)cc1)N1CCOCC1 (stereo not given) | 20 µg/mL (≈ 55.7 µM)
